In US7678913B2, “Ureas as factor Xa inhibitors” (Portola Pharmaceuticals, Inc., priority 2004, dated 2010):

Each molecule was assayed against T1, human plasma protein factor Xa (Homo sapiens, UniProt P00742) (assay: Factor Xa IC50 determination (cleavage of chromogenic substrate S-2765)). Details: fXa 1 nM, S-2765 100 μM, Tris buffered saline pH 7.4, room temperature.
T1 construct: measure proteolytic activity of the enzyme (factor Xa); purchased Haematologic Technologies (Essex Junction, Vt.); host or cells: human plasma
Assay type: biochemical
Text: This example illustrates methods for evaluating the compounds of the invention, along with results obtained for such assays. The in vitro and in vivo Factor Xa isoform activities of the inventive compounds can be determined by various procedures known in the art, such as a test for their ability to inhibit the activity of the Factor Xa isoform. […] The IC50 value is the concentration (in nM) of the compound required to provide 50% inhibition of Factor Xa isoform.
An in vitro assay for detecting and measuring inhibition activity against Factor Xa is as follows:
• The substrate S-2765 (Z-D-Arg-Gly-Arg-pNA.HCl) was obtained from Diapharma (West Chester, Ohio). Enzyme: • The human plasma protein factor Xa was purchased from Haematologic Technologies (Essex Junction, Vt.). Methods
All assays, which are performed in 96-well microtiter plates, measure proteolytic activity of the enzyme (factor Xa) by following cleavage of paranitroanilide substrate. The assay buffer used for proteolytic assays was Tris buffered saline (20 mM Tris, 150 mM NaCl, 5 mM CaCl2, 0.1% Bovine serum albumin (BSA), 5% Dimethly Sulfoxide (DMSO) pH 7.4). In a 96-well microtiter plate, inhibitor was serially diluted to give a range of concentrations from 0.01 nM to 10 μM (final). Duplicate sets of wells were assayed and control wells without inhibitor were included. Enzyme was added to each well,(fXa concentration=1nM), the plate was shaken for 5 seconds and then incubated for 5 minutes at room temperature. S2765 was added (100 μM final) and the plate was shaken for 5 seconds (final liquid volume in each well was 200 μl). The degree of substrate hydrolysis was measured at 405 nm on a Thermomax plate reader (Molecular Devices, Sunnyvale, Calif.) for 2 minutes. The initial velocities (mOD/min), for each range of inhibitor concentrations, were fitted to a four parameter equation using Softmax data analysis software. The parameter C, derived from the resulting curve-fit, corresponded to the concentration for half maximal inhibition (IC50).

T1 sequence (P00742 235-488 limits assumed): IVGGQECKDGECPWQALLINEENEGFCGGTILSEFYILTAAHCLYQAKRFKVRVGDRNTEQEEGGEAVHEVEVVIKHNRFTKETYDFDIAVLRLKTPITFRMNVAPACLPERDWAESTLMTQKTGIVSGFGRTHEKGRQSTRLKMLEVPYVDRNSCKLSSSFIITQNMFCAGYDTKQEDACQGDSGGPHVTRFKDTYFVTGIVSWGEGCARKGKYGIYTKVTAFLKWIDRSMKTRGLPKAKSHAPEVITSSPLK
T1 sequence (P00742 41-179 partner limits assumed): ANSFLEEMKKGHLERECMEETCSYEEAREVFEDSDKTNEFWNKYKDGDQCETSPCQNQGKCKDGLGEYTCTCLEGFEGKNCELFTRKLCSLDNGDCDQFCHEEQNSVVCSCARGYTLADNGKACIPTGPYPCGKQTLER

| Structure (SMILES) | IC50 [nM] |
| --- | --- |
| CN1CCN=C1c1ccc(NC(=O)C(NC(=O)Nc2ccc(Cl)cc2)c2cccnc2)cc1 (stereo not drawn) [Example 9, N-[4-(1-methyl-4,5-dihydro-1H-imidazol-2-yl)phenyl]-2-pyridin-3-yl-2-(4-chlorophenylaminocarbonylamino)-acetamide] | 100 to 500 |
| CCN(C)C(=N)c1ccc(NC(=O)C(NC(=O)Nc2ccc(Cl)cc2)c2ccccc2)cc1 (stereo not drawn) [Example 24, N-[4-(N-methyl-N-ethylaminoimino)phenyl]-2-phenyl-2-(4-chlorophenylaminocarbonylamino)-acetamide] | ≤ 100 |
| CN(C)Cc1nccn1-c1ccc(NC(=O)C(NC(=O)Nc2ccc(Cl)cc2)c2ccccc2F)c(F)c1 (stereo not drawn) [Example 58, N-[4-(2-dimethylaminomethyl-imidazol-1-yl)-2-fluorophenyl]-2-(2-fluorophenyl)-2-(4-chlorophenylaminocarbonylamino)-acetamide] | ≤ 100 |
| Cc1ccccc1C(NC(=O)Nc1ccc(Cl)cc1)C(=O)N1CCN(C2CCN(C)CC2)CC1 (stereo not drawn) [Example 91] | ≤ 100 |
| CN1CCN=C1c1ccc(NC(=O)C(CC(=O)NCc2ccccc2)NC(=O)Nc2ccc(Cl)cc2)cc1 (stereo not drawn) [Example 69, N-[4-(1-methyl-4,5-dihydro-1H-imidazol-2-yl)phenyl]-2-(benzylamino-carbonylmethyl)-2-(4-chlorophenylaminocarbonylamino)-acetamide] | ≥ 500 |
| CN1CCN=C1c1ccc(NC(=O)C(NC(=O)Nc2ccc(Cl)cc2)c2ccc(F)cc2)cc1 (stereo not drawn) [Example 10, N-[4-(1-methyl-4,5-dihydro-1H-imidazol-2-yl)phenyl]-2-(4-fluorophenyl)-2-(4-chlorophenylaminocarbonylamino)-acetamide] | ≤ 100 |
| CN1CCN=C1c1ccc(NC(=O)[C@H](CC(=O)OCc2ccccc2)NC(=O)Nc2ccc(Cl)cc2)cc1 [Example 59] | ≤ 100 |
| CN1CCC(N2CCN(C(=O)C(NC(=O)Nc3ccc(Cl)cc3)c3ccccc3F)CC2)CC1 (stereo not drawn) [Example 127] | ≤ 100 |
| N=C(c1ccc(N2C(=O)C(NC(=O)Nc3ccc(Cl)cc3)Cc3ccccc32)cc1)N1CCCC1 (stereo not drawn) [Example 135] | ≥ 500 |
| N=C(c1ccc(NC(=O)C(NC(=O)Nc2ccc(Cl)cc2)c2ccccc2I)cc1)N1CCCC1 (stereo not drawn) [Example 117] | ≤ 100 |
| CC(=N)N1CCC(CNC(=O)C(NC(=O)Nc2ccc(Cl)cc2)c2ccccc2F)CC1 (stereo not drawn) [Example 54, N-[(N-acetimidyl-piperidin-4-yl)methyl]-2-(2-fluorophenyl)-2-(4-chlorophenylaminocarbonylamino)-acetamide] | 100 to 500 |
| CN1CCN=C1c1ccc(NC(=O)[C@@H](CC(=O)O)NC(=O)Nc2ccc(Cl)cc2)cc1 [Example 62, (2R) N-[4-(1-methyl-4,5-dihydro-1H-imidazol-2-yl)phenyl]-2-carboxymethyl-2-(4-chlorophenylaminocarbonylamino)-acetamide] | 100 to 500 |
| CN1CCN=C1c1ccc(NC(=O)[C@H](NC(=O)Nc2ccc(Cl)cc2)c2ccccc2)cc1 [Example 32, (2R) N-[4-(1-methyl-4,5-dihydro-1H-imidazol-2-yl)phenyl]-2-phenyl-2-(4-chlorophenylaminocarbonylamino)-acetamide] | ≤ 100 |
| CN(C)C(=N)c1ccc(NC(=O)C(NC(=O)Nc2ccc(Cl)cc2)c2ccccc2I)cc1 (stereo not drawn) [Example 116, N-[4-(dimethylaminoimino)phenyl]-2-(2-iodophenyl)-2-(4-chlorophenylaminocarbonylamino)-acetamide] | ≤ 100 |
| O=C(Nc1ccc(Cl)cc1)NC(C(=O)N1CCC(N2CCOCC2=O)CC1)c1ccccc1Br (stereo not drawn) [Example 146, 4-(3-morpholinon-4-yl)piperidin-1-yl-2-(2-bromophenyl)-2-(4-chlorophenylaminocarbonylamino)-acetamide] | 100 to 500 |
| CN1CCN=C1c1ccc(NC(=O)C(NC(=O)Nc2ccc(Cl)cc2)c2ccccc2Cl)cc1 (stereo not drawn) [Example 75, N-[4-(1-methyl-4,5-dihydro-1H-imidazol-2-yl)phenyl]-2-(2-chlorophenyl)-2-(4-chlorophenylaminocarbonylamino)-acetamide] | ≤ 100 |
| Cc1ccccc1C(NC(=O)Nc1ccc(Cl)cc1)C(=O)Nc1ccc(-c2cccc[n+]2[O-])cc1 (stereo not drawn) [Example 88, N-[4-(N-oxo-pyridin-2-yl)phenyl]-2-(2-methylphenyl)-2-(4-chlorophenylaminocarbonylamino)-acetamide] | ≤ 100 |

| Structure (SMILES) | IC50 [nM] |
| --- | --- |
| CN1CCC(C2CCN(C(=O)[C@H](NC(=O)Nc3ccc(Cl)cc3)c3ccccc3)CC2)CC1 [Example 155, (2R) 4-(1-methylpiperidin-4-yl)piperidin-1-yl-2-phenyl-2-(4-chlorophenylaminocarbonylamino)-acetamide] | ≤ 100 |
| Cc1ccccc1C(NC(=O)Nc1ccc(Cl)cc1)C(=O)Nc1ccc(N2CCOCC2=O)cc1 (stereo not drawn) [Example 95, N-[4-(3-oxo-morpholin-4-yl)phenyl]-2-(2-methylphenyl)-2-(4-chlorophenylaminocarbonylamino)-acetamide] | ≤ 100 |
| COc1ccccc1C(NC(=O)Nc1ccc(Cl)cc1)C(=O)Nc1ccc(-c2cccc[n+]2[O-])cc1 (stereo not drawn) [Example 107, N-[4-(N-oxo-pyridin-2-yl)phenyl]-2-(2-methoxyphenyl)-2-(4-chlorophenylaminocarbonylamino)-acetamide] | ≤ 100 |
| C=CCN(C)C(=N)c1ccc(NC(=O)C(NC(=O)Nc2ccc(Cl)cc2)c2ccccc2)cc1 (stereo not drawn) [Example 26, N-[4-(N-methyl-N-allylaminoimino)phenyl]-2-phenyl-2-(4-chlorophenylaminocarbonylamino)-acetamide] | ≤ 100 |
| N=C(c1ccc(NC(=O)C(NC(=O)Nc2ccc(Cl)cc2)c2ccccc2F)c(F)c1)N1CCCC1 (stereo not drawn) [Example 47] | ≤ 100 |
| CC#CCC(NC(=O)Nc1ccc(Cl)cc1)C(=O)Nc1ccc(C2=NCCN2C)cc1 (stereo not drawn) [Example 130, N-[4-(1-methyl-4,5-dihydro-1H-imidazol-2-yl)phenyl]-2-(but-2-yn-1-yl)-2-(4-chlorophenylaminocarbonylamino)-acetamide] | ≤ 100 |
| CN(C)Cc1ccccc1-c1ccc(NC(=O)C(NC(=O)Nc2ccc(Br)cc2)c2ccccc2F)c(F)c1 (stereo not drawn) [Example 57, N-[4-(2-dimethylaminomethyl-phenyl)-2-fluorophenyl]-2-(2-fluorophenyl)-2-(4-bromophenylaminocarbonylamino)-acetamide] | ≤ 100 |
| O=C(Nc1ccc(Cl)cc1)N[C@@H](C(=O)Nc1ccc(-n2ccccc2=O)cc1)c1ccccc1 [Example 138, (2R) N-[4-(2-pyridon-1-yl)phenyl]-2-phenyl-2-(4-chlorophenylaminocarbonylamino)-acetamide] | ≤ 100 |
| CC(C)N1CCC(NC(=O)C(NC(=O)Nc2ccc(Cl)cc2)c2ccccc2Cl)CC1 (stereo not drawn) [Example 103, N-(1-isopropylpiperidin-4-yl)-2-(2-chlorophenyl)-2-(4-chlorophenylamino-carbonylamino)-acetamide] | ≥ 500 |
| C#Cc1ccc(NC(=O)NC(C(=O)Nc2ccc(C3=NCCN3C)cc2)c2cccs2)cc1 (stereo not drawn) [Example 18, N-[4-(1-methyl-4,5-dihydro-1H-imidazol-2-yl)phenyl]-2-(2-thienyl)-2-(4-ethynylphenylaminocarbonylamino)-acetamide] | 100 to 500 |
| O=C(Nc1ccc(Cl)cc1)N[C@@H](C(=O)N1CCC(N2CCOCC2=O)CC1)c1ccccc1 [Example 142, (2R) 4-(3-morpholinon-4-yl)piperidin-1-yl-2-phenyl-2-(4-chlorophenylaminocarbonylamino)-acetamide] | ≤ 100 |
| CN(C)C(=N)c1ccc(NC(=O)C(NC(=O)Nc2ccc(Cl)cc2)c2ccccc2Br)cc1 (stereo not drawn) [Example 80, N-[4-(dimethylaminoimino)phenyl]-2-(2-bromophenyl)-2-(4-chlorophenylaminocarbonylamino)-acetamide] | ≤ 100 |
| CN1CCC(N2CCN(C(=O)C(NC(=O)Nc3ccc(Cl)cc3)c3ccccc3Br)CC2)CC1 (stereo not drawn) [Example 83] | ≤ 100 |
| CN(C)C(=N)c1ccc(N2C(=O)C(NC(=O)Nc3ccc(Cl)cc3)Cc3ccccc32)cc1 (stereo not drawn) [Example 134, 1-[4-(dimethylaminoimino)phenyl]-3-(4-chlorophenylaminocarbonylamino)-3,4-dihydroquinolin-2-one] | 100 to 500 |
| CN1CCN=C1c1ccc(NC(=O)C(CC(N)=O)NC(=O)Nc2ccc(Cl)cc2)cc1 (stereo not drawn) [Example 71, N-[4-(1-methyl-4,5-dihydro-1H-imidazol-2-yl)phenyl]-2-(aminocarbonylmethyl)-2-(4-chlorophenylaminocarbonylamino)-acetamide] | ≥ 500 |
| O=C(Nc1ccc(Cl)cc1)NC(C(=O)Nc1ccc(-c2cccc[n+]2[O-])cc1)c1ccccc1F (stereo not drawn) [Example 51, N-[4-(N-oxo-pyridin-2-yl)phenyl]-2-(2-fluorophenyl)-2-(4-chlorophenylaminocarbonylamino)-acetamide] | ≤ 100 |
